Measurements reported in patent US7361671B2, “Substituted heteroarylalkanoic acids” (The Institute for Pharmaceutical Discovery, Inc., priority 2001, dated 2008).
Counter-ions that a name gives are not always drawn.

Assays:
[1] = biological target: human aldose reductase (hALR2) (Homo sapiens, UniProt P15121); test: inhibition of human aldose reductase (hALR2) activity, methods similar to Butera et al.; format: biochemical; conditions: concentration to inhibit activity by 50%, read-out: hAR-#1 (aldose)
Method: Representative compounds of the invention are tested for their potency, selectivity and efficacy as inhibitors of human aldose reductase. […] Using this assay, the concentrations required to inhibit human aldose reductase (hALR2) activity by 50% (IC50) are determined.

[2] = test system: urinary excretion of uric acid; test: Uricosuric activity in the chimpanzee: amount of uric acid excreted in the urine; format: in vivo; conditions: single oral 4 mg/kg dose; for Amount of uric acid excreted in the urine in 24 hour intervals, mean: mean of chimps
Method: (§1) Compound of Example 14 was administered to chimpanzees orally as a single 4 mg/kg does. While four animals were dosed, complete data was not collected for one animal (Chimp #4), as an adverse reaction to anesthesia required early termination of this animal from the study.

[3] = test system: blood uric acid levels; test: Uricosuric activity in the chimpanzee: concentrations of uric acid in serum; format: in vivo; conditions: single oral 4 mg/kg dose; for Concentrations of uric acid in serum, mean: mean of chimps
Method: as §1

## O=C(O)Cc1ccsc1Cc1nc2c(F)c(F)cc(F)c2s1 [Example 23, [2-(4,5,7-trifluoro-benzothiazol-2-ylmethyl)-thiophen-3-yl]-acetic acid]
[1]
  IC50: 24 nM
other
  melting point: 142 to 144 °C

## O=C(O)Cc1cc(Cc2nc3c(F)c(F)cc(F)c3s2)cs1 [Example 21, [4-(4,5,7-Trifluoro-benzothiazol-2-ylmethyl)-thiophen-2-yl]-acetic acid]
[1]
  IC50: 9 nM
other
  melting point: 144 to 146 °C

## O=C(O)Cc1cnc(Cc2ccccc2)c(Cc2nc3c(F)c(F)cc(F)c3s2)c1 (as salt: hydrochloride) [Example 16, 6-Benzyl-5-(4,5,7-trifluoro-benzothiazol-2-ylmethyl)-pyridin-3-yl-acetic acid hydrochloride]
other
  melting point: 185 °C (dec.)

## O=C(O)Cc1cnc(-c2ccccc2)c(Cc2nc3c(F)c(F)cc(F)c3s2)c1 (as salt: hydrochloride) [Example 15, 6-Phenyl-5-(4,5,7-trifluoro-benzothiazol-2-ylmethyl)-pyridin-3-yl-acetic acid hydrochloride]
other
  melting point: 205 to 207 °C (dec.)

## O=C(O)Cc1cncc(Cc2nc3c(F)c(F)cc(F)c3s2)c1 (as salt: hydrochloride) [Example 8, 5-(4,5,7-trifluoro-benzothiazol-2-ylmethyl)-pyridin-3-yl-acetic acid hydrochloride]
other
  melting point: 196 to 197 °C

## O=C(O)Cc1cc(Cc2nc3c(F)c(F)cc(F)c3s2)cnc1Cc1ccccc1 (as salt: hydrochloride) [Example 12, 2-benzyl-5-(4,5,7-trifluoro-benzothiazol-2-ylmethyl)-pyridin-3-yl-acetic acid hydrochloride]
other
  melting point: 175 °C (dec.)

## Cl.O=C(O)Cc1cc(Cc2nc3c(F)c(F)cc(F)c3s2)c(-c2ccccc2)nc1-c1ccccc1 [Example 6, [2,6-Diphenyl-5-(4,5,7-trifluoro-benzothiazol-2-ylmethyl)-pyridin-3-yl]acetic acid hydrochloride]
[1]
  IC50: 11 nM
other
  melting point: 84 to 86 °C

## CCc1ncc(CC(=O)O)cc1Cc1nc2c(F)c(F)cc(F)c2s1 (as salt: hydrochloride) [Example 14, 6-ethyl-5-(4,5,7-trifluoro-benzothiazol-2-ylmethyl)-pyridin-3-yl-acetic acid hydrochloride]
other
  melting point: 220 °C (dec.)

## CCc1ncc(CC(=O)O)cc1Cc1nc2c(F)c(F)cc(F)c2s1 [Example 14, 6-ethyl-5-(4,5,7-trifluoro-benzothiazol-2-ylmethyl)-pyridin-3-yl-acetic acid hydrochloride]
[1]
  IC50: 7 nM
[2]; Chimp #1, 0-24 hours
  Amount of uric acid excreted in the urine in 24 hour intervals: 1020 mg
[2]; Chimp #1, 24-48 hours
  Amount of uric acid excreted in the urine in 24 hour intervals: 686 mg
[2]; Chimp #1, 48-72 hours
  Amount of uric acid excreted in the urine in 24 hour intervals: 657 mg
[2]; Chimp #1, Baseline
  Amount of uric acid excreted in the urine in 24 hour intervals: 321 mg
[2]; Chimp #2, 0-24 hours
  Amount of uric acid excreted in the urine in 24 hour intervals: 758 mg
[2]; Chimp #2, 24-48 hours
  Amount of uric acid excreted in the urine in 24 hour intervals: 399 mg
[2]; Chimp #2, 48-72 hours
  Amount of uric acid excreted in the urine in 24 hour intervals: 290 mg
[2]; Chimp #2, Baseline
  Amount of uric acid excreted in the urine in 24 hour intervals: 474 mg
[2]; Chimp #3, 0-24 hours
  Amount of uric acid excreted in the urine in 24 hour intervals: 843 mg
[2]; Chimp #3, 24-48 hours
  Amount of uric acid excreted in the urine in 24 hour intervals: 189 mg
[2]; Chimp #3, 48-72 hours
  Amount of uric acid excreted in the urine in 24 hour intervals: 216 mg
[2]; Chimp #3, Baseline
  Amount of uric acid excreted in the urine in 24 hour intervals: 347 mg
[2]; Chimp #4, Baseline
  Amount of uric acid excreted in the urine in 24 hour intervals: 450 mg
[2]; chimpanzee, over the first 24 hours following dosage
  urinary excretion of uric acid: concomitant increase in the urinary excretion of uric acid
[2]; 0-24 hours
  Amount of uric acid excreted in the urine in 24 hour intervals, mean: 874 mg
[2]; 24-48 hours
  Amount of uric acid excreted in the urine in 24 hour intervals, mean: 425 mg
[2]; 48-72 hours
  Amount of uric acid excreted in the urine in 24 hour intervals, mean: 388 mg
[2]; Baseline
  Amount of uric acid excreted in the urine in 24 hour intervals, mean: 398 mg
[3]; Chimp #1, 0 hours
  Concentrations of uric acid in serum: 3.0 mg/dL
[3]; Chimp #1, 0.25 hours
  Concentrations of uric acid in serum: 3.0 mg/dL
[3]; Chimp #1, 0.50 hours
  Concentrations of uric acid in serum: 3.0 mg/dL
[3]; Chimp #1, 1.0 hours
  Concentrations of uric acid in serum: 3.0 mg/dL
[3]; Chimp #1, 2.0 hours
  Concentrations of uric acid in serum: 2.8 mg/dL
[3]; Chimp #1, 6.0 hours
  Concentrations of uric acid in serum: 2.2 mg/dL
[3]; Chimp #1, 12 hours
  Concentrations of uric acid in serum: 1.9 mg/dL
[3]; Chimp #1, 24 hours
  Concentrations of uric acid in serum: 2.3 mg/dL
[3]; Chimp #1, 48 hours
  Concentrations of uric acid in serum: 3.4 mg/dL
[3]; Chimp #1, 72 hours
  Concentrations of uric acid in serum: 3.2 mg/dL
[3]; Chimp #1, Baseline
  Concentrations of uric acid in serum: 2.9 mg/dL
[3]; Chimp #2, 0 hours
  Concentrations of uric acid in serum: 1.7 mg/dL
[3]; Chimp #2, 0.25 hours
  Concentrations of uric acid in serum: 1.8 mg/dL
[3]; Chimp #2, 0.50 hours
  Concentrations of uric acid in serum: 1.8 mg/dL
[3]; Chimp #2, 1.0 hours
  Concentrations of uric acid in serum: 1.8 mg/dL
[3]; Chimp #2, 2.0 hours
  Concentrations of uric acid in serum: 1.7 mg/dL
[3]; Chimp #2, 6.0 hours
  Concentrations of uric acid in serum: 1.2 mg/dL
[3]; Chimp #2, 12 hours
  Concentrations of uric acid in serum: 0.9 mg/dL
[3]; Chimp #2, 24 hours
  Concentrations of uric acid in serum: 1.4 mg/dL
[3]; Chimp #2, 48 hours
  Concentrations of uric acid in serum: 1.2 mg/dL
[3]; Chimp #2, 72 hours
  Concentrations of uric acid in serum: 1.4 mg/dL
[3]; Chimp #2, Baseline
  Concentrations of uric acid in serum: 1.9 mg/dL
[3]; Chimp #3, 0 hours
  Concentrations of uric acid in serum: 2.2 mg/dL
[3]; Chimp #3, 0.25 hours
  Concentrations of uric acid in serum: 2.3 mg/dL
[3]; Chimp #3, 0.50 hours
  Concentrations of uric acid in serum: 2.3 mg/dL
[3]; Chimp #3, 1.0 hours
  Concentrations of uric acid in serum: 2.1 mg/dL
[3]; Chimp #3, 2.0 hours
  Concentrations of uric acid in serum: 1.9 mg/dL
[3]; Chimp #3, 6.0 hours
  Concentrations of uric acid in serum: 1.6 mg/dL
[3]; Chimp #3, 12 hours
  Concentrations of uric acid in serum: 1.6 mg/dL
[3]; Chimp #3, 24 hours
  Concentrations of uric acid in serum: 1.9 mg/dL
[3]; Chimp #3, 48 hours
  Concentrations of uric acid in serum: 1.9 mg/dL
[3]; Chimp #3, 72 hours
  Concentrations of uric acid in serum: 2.4 mg/dL
[3]; Chimp #3, Baseline
  Concentrations of uric acid in serum: 2.3 mg/dL
[3]; Chimp #4, 0 hours
  Concentrations of uric acid in serum: 2.5 mg/dL
[3]; Chimp #4, 0.25 hours
  Concentrations of uric acid in serum: 2.6 mg/dL
[3]; Chimp #4, 0.50 hours
  Concentrations of uric acid in serum: 2.5 mg/dL
[3]; Chimp #4, 1.0 hours
  Concentrations of uric acid in serum: 2.7 mg/dL
[3]; Chimp #4, 2.0 hours
  Concentrations of uric acid in serum: 2.3 mg/dL
[3]; Chimp #4, 6.0 hours
  Concentrations of uric acid in serum: 1.8 mg/dL
[3]; Chimp #4, 12 hours
  Concentrations of uric acid in serum: 1.7 mg/dL
[3]; Chimp #4, Baseline
  Concentrations of uric acid in serum: 2.5 mg/dL
[3]; chimpanzee, average of three animals, at approximately 12 hours following dosage
  maximal lowering of blood uric acid levels: about 44%
[3]; chimpanzee, data from three animals
  uricosuric effect: clear uricosuric effect
[3]; 0 hours
  Concentrations of uric acid in serum, mean: 2.4 mg/dL
[3]; 0.25 hours
  Concentrations of uric acid in serum, mean: 2.4 mg/dL
[3]; 0.50 hours
  Concentrations of uric acid in serum, mean: 2.4 mg/dL
[3]; 1.0 hours
  Concentrations of uric acid in serum, mean: 2.4 mg/dL
[3]; 2.0 hours
  Concentrations of uric acid in serum, mean: 2.2 mg/dL
[3]; 6.0 hours
  Concentrations of uric acid in serum, mean: 1.7 mg/dL
[3]; 12 hours
  Concentrations of uric acid in serum, mean: 1.5 mg/dL
[3]; 24 hours
  Concentrations of uric acid in serum, mean: 1.9 mg/dL
[3]; 48 hours
  Concentrations of uric acid in serum, mean: 2.2 mg/dL
[3]; 72 hours
  Concentrations of uric acid in serum, mean: 2.3 mg/dL
[3]; Baseline
  Concentrations of uric acid in serum, mean: 2.4 mg/dL

## O=C(O)Cc1cc(Cc2nc3cc(C(F)(F)F)ccc3s2)cs1 (as salt: hydrochloride)
other
  melting point: 131 to 132 °C

## O=C(O)Cc1cc(Cc2nc3c(F)c(F)cc(F)c3s2)cnc1-c1ccccc1 (as salt: hydrochloride) [Example 13, 2-phenyl-5-(4,5,7-trifluoro-benzothiazol-2-ylmethyl)-pyridin-3-yl-acetic acid hydrochloride]
other
  melting point: 110 °C (dec.)

## Cc1nc(C)c(Cc2nc3c(F)c(F)cc(F)c3s2)c(C)c1CC(=O)O (as salt: hydrochloride) [Example 9, 2,4,6-trimethyl-5-(4,5,7-trifluoro-benzothiazol-2-ylmethyl)-pyridin-3-yl-acetic acid hydrochloride]
other
  melting point: 216 to 217 °C

## CCc1c(CC(=O)O)c(C)nc(C)c1Cc1nc2c(F)c(F)cc(F)c2s1 (as salt: hydrochloride) [Example 10, 2,6-dimethyl-4-ethyl-5-(4,5,7-trifluoro-benzothiazol-2-ylmethyl)-pyridin-3-yl-acetic acid hydrochloride]
other
  melting point: 193 to 195 °C
